Results reported in patent US20240042065A1, “THERANOSTIC AGENTS” (priority 2022, published 2024).

Test: NMR relaxivity studies (R1 relaxivity)
Type: physicochemical
Details: Gd(III) complexes of DTPA analogues
Procedure: The potential of L1 and L2 to be used in magnetic resonance imaging/Optical Imaging (MRI/OI) was evaluated by measuring their (a) thermodynamic stability by stability constants with potentiometric titrations; (b) R1 relaxivities by NMR relaxivity studies and (c) spectrophotometric (luminescence) investigations.
The diagnostic moiety of the theranostic agent of the present invention enhances MR images when the patient is subjected to the magnetic field of the MR scanning machine by altering the T1 relaxation of local water protons. The paramagnetic relaxation of water protons arises as a result of dipole-dipole interactions between the proton nuclear spins and that of the oscillating magnetic field of MR machine caused by the interaction with the unpaired electron spins of paramagnetic metal ion in the complex, under pulse of radio frequency. The overall paramagnetic water proton relaxation rate enhancement (i.e. proton relaxivity) is governed by two factors, namely inner sphere and outer sphere contributions. […] This profile measures molecular dynamics taking place within the said complex understudy in a quantitative manner in the time scales of milliseconds to nanoseconds. […]

SMILES: O=C(O)CN(CCN(CCN(CC(=O)O)CC(=O)O)CCN1C(=O)c2cccc3cccc(c23)C1=O)CC(=O)O [Type A]
- relaxivity (in words): high relaxivity
